According to patent US8828932B2, “Bifunctional molecules for inactivating HIV and blocking HIV entry” (New York Blood Center, Inc., priority 2010, dated 2014):

Assays:
HIV-1 IIIB (B, X4) [1] = experiment: Inactivation of cell-free virus, PEG 6000 precipitation, MT-2 cells, p24; assay type: cell-based; details: FIG. 17, MT-2 cells
Method: (§1) Briefly, HIV-1 isolate (500 TCID50/ml) was added to 100 μl of the samples with different concentration and incubate on 4° C. for 1 hour. Then, PEG 6000 was added to the final concentration of 3% and centrifuge on a microfuge at 15,000 rpm for 30 min. The supernatants were removed, and the pellet was washed with PBS and resuspended to 100 μl. MT-2 or TZM-bl cells (1×10^5/ml) were added at 100 μl/well, and cultured at 37° C. for 3 days. p24 production in MT-2 or luciferase activity was determined according to kit manufacturer' instruction.

HIV-1 IIIB (B, X4) [2] = system: HIV-1 IIIB (B, X4)
Method: The inhibitory activity of the bifunctional molecule on HIV-1 IIIB infection was determined by ELISA for p24 production (Jiang S et al. J Exp Med 174:1557-1563, 1991). Briefly, MT-2 cells were infected with HIV-1IIIB at 100 TCID50 (50% tissue culture infective dose) in RPMI 1640 medium containing 10% FBS in the presence or absence of an antigen specific antiserum or IgG antibody in serial 2-fold dilutions at 37° C. overnight. The culture supernatants were then removed and fresh media were added. On day 4 post-infection, the culture supernatants were collected and mixed with equal volumes of 5% TRITON™ X-100 for the detection in the p24 protein ELISA.

HIV-1 Bal (B, R5) [3] = experiment: Inactivation of cell-free virus, PEG 6000 precipitation, TZM-bl cells, luciferase; assay type: cell-based; details: FIG. 18, luciferase
Method: as §1

HIV-1 Bal (B, R5) [4] = assay type: cell-based
Method: The cells were harvested and lysed on the fourth day post-infection with 50 μl of lysing reagent. The luciferase activity was analyzed using a luciferase kit (Promega) and a luminometer (Ultra 386, Tecan) according to the manufacturer's instruction. The percent inhibition of luciferase activity was calculated.

[5] = system: HIV-1 IIIB chronically infected H9 cells / MT-2 cells; assay type: cell-based
Method: HIV-1-mediated cell-cell fusion was determined by a dye transfer assay (Lu H et al. J Virol Methods 107:155-161, 2003.) using Calcein AM-labeled HIV-1IIIB chronically infected H9 (H9/HIV-1 IIIB) cells as effector cells and MT-2 cells as target cells.

RU570 (G, R5) = assay type: cell-based, HIV-1
Method: (§2) The inhibitory activity of the bifunctional molecule on infection by primary HIV-1 isolates, 92US657 (B, R5), 94UG103 (A, X4R5), 93MW959 (C, R5), RU570 (G, R5) and 92TH009 (E/A, R5) was determined (Jiang S et al. Antimicrob Agents Chemother 48:4349-4359, 2004). Briefly, peripheral blood mononuclear cells (PBMCs) were isolated from the blood of healthy donors using a standard density gradient (Histopaque-1077, Sigma) centrifugation. After incubation at 37° C. for 2 hr, the nonadherent cells were collected and resuspended at 5×10^5/ml in RPMI 1640 medium containing 10% FBS, 5 μg of phytohemagglutinin (PHA)/ml, and 100 U of IL-2/ml, followed by incubation at 37° C. for 3 days. The PHA-stimulated cells were infected with the corresponding primary HIV-1 isolates at a multiplicity of infection (MOI) of 0.01 in the absence or presence of antisera at a serial 2-fold dilution. The supernatants were collected 7 days post-infection and tested for p24 antigen by ELISA as described above. The IC50 was calculated using the […]™ software as described above.

94UG103 (A, X4R5) = assay type: cell-based, HIV-1
Method: as §2

92US657 (B, R5) = assay type: cell-based, HIV-1
Method: as §2

93MW959 (C, R5) = assay type: cell-based, HIV-1
Method: as §2

92TH009 (E/A, R5) = experiment: Primary HIV-1 isolate infection of PBMCs, p24 ELISA; assay type: cell-based
Method: as §2

Question: For enfuvirtide, which “virus inactivation activity, HIV-1 IIIB” value (HIV-1 IIIB (B, X4) [1]) is on record?
Answer: no significant effects on virus

Question: And the IC50 (HIV-1 IIIB (B, X4) [2])?
Answer: 17.3 nM

Question: And the IC90 (HIV-1 IIIB (B, X4) [2])?
Answer: 117 nM

Question: And the “virus inactivation activity, HIV-1 Bal” value (HIV-1 Bal (B, R5) [3])?
Answer: no significant effects on virus

Question: What about the IC50 (HIV-1 Bal (B, R5) [4]) of the same substance?
Answer: 43.4 nM

Question: And the IC90 (HIV-1 Bal (B, R5) [4])?
Answer: > 250 nM

Question: And the IC50 [5]?
Answer: 20.1 nM

Question: And the IC90 [5]?
Answer: 41.7 nM

Question: And the IC50 (RU570 (G, R5))?
Answer: 44.1 nM

Question: What about the IC90 (RU570 (G, R5)) of the same substance?
Answer: 110 nM

Question: What about the IC50 (94UG103 (A, X4R5)) of the same substance?
Answer: 6.67 nM

Question: And the IC90 (94UG103 (A, X4R5))?
Answer: 29.4 nM

Question: What about the IC50 (92US657 (B, R5)) of the same substance?
Answer: 56.1 nM

Question: What about the IC90 (92US657 (B, R5)) of the same substance?
Answer: 224 nM

Question: What about the IC50 (93MW959 (C, R5)) of the same substance?
Answer: 4.7 nM

Question: What about the IC90 (93MW959 (C, R5)) of the same substance?
Answer: 18.8 nM

Question: And the IC50 (92TH009 (E/A, R5); read-out: IC50, HIV-1 replication 92TH009 (E/A, R5))?
Answer: 1.43 nM

Question: And the IC90 (92TH009 (E/A, R5); read-out: IC90, HIV-1 replication 92TH009 (E/A, R5))?
Answer: 7.99 nM
